# Laboratory results from ChEMBL document CHEMBL5725348, “Benzimidazole inhibitors of the sodium channel” (2017).
# pIC50: −log10 of the molar value.
# Test: Nav1.5 Assay: To assess the potential cardiac liability of compounds at an early stage in the drug discovery process, a Nav1.5 sodium channel screening assay was be performed on Molecular Device's PatchXpress™ automated electrophysiology platform. Under voltage-clamp conditions, Nav1.5 currents were recorded from HEK cells expressing the human Nav1.5 channel in the absence and presence of increasing concentrations of the test compound to obtain an IC50 value. The external recording solution contained (in mM): 90 TEACl, 50 NaCl, 1.8 CaCl, 1 MgCl2, 10 HEPES, 10 glucose, adjusted to pH 7.4 with TEA-OH and to 300 mOsm with sucrose (if necessary), while the internal patch pipette solution contained (in mM): 129 CsF, 2 MgCl2, 11 EGTA, 10 HEPES, 3 Na2ATP adjusted to pH 7.2 with CsOH and to 290 mOsm with sucrose (if necessary). Nav1.5 channel currents were evoked using a cardiac action potential waveform at 1 Hz, digitized at 31.25 kHz and low-pass filtered at 12 kHz.
# Conditions: HEK293
row,SMILES,pIC50
1,NCc1nc2cc(C(F)(F)F)cc(C(F)(F)F)c2[nH]1,< 5.00
2,O=C1CNCCN1Cc1nc2cc(C(F)(F)F)cc(C(F)(F)F)c2[nH]1,< 5.00
3,O=C1CNCCN1Cc1nc2cc(C(F)(F)F)c(C(F)(F)F)cc2[nH]1,< 5.00
4,NCC(=O)NCc1nc2cc(Cl)c(Cl)cc2[nH]1,< 5.00
5,NCCc1nc2cc(C(F)(F)F)cc(C(F)(F)F)c2[nH]1,< 5.00
6,CNCc1nc2cc(C(F)(F)F)cc(C(F)(F)F)c2[nH]1,< 5.00
7,CC(C)(N)Cc1nc2cc(C(F)(F)F)cc(C(F)(F)F)c2[nH]1,5.44
8,CC(C)C[C@H](CN)Cc1nc2c(C(F)(F)F)cc(C(F)(F)F)cc2[nH]1,< 5.00
9,NCC(=O)NCc1nc2cc(C(F)(F)F)cc(C(F)(F)F)c2[nH]1,< 5.00
10,NCCCc1nc2cc(C(F)(F)F)cc(C(F)(F)F)c2[nH]1,5.12
11,CC1(NC(=O)CN2CC(Cc3nc4c(C(F)(F)F)cc(C(F)(F)F)cc4[nH]3)C2)CCC1,< 5.00
12,CC(C)(N)C(=O)NCc1nc2cc(C(F)(F)F)cc(C(F)(F)F)c2[nH]1,< 5.00
13,FC(F)(F)c1cc(C(F)(F)F)c2nc(CC3CNC3)[nH]c2c1,< 5.00
